From the supplement of paper PMC10307832

Experiments:
Test in all cases: relative viability (nuclei count vs DMSO), 5 days (fraction); higher = more cells survive
ABC-1 = tested on: ABC-1
How it was run: (§1)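 Medians of duplicate plates are given as relative viability. That measure is the nuclei count in treated wells divided by the count in vehicle wells. Counts were taken on 4× images of lung cancer cell lines in 1536-well plates, 5 days after pin-tool dosing the day after seeding with one drug alone or a fixed anchor-drug dose plus five library-drug doses (not always all listed) in √10 steps.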

NCI-H1975 = tested on: NCI-H1975
How it was run: as §1

NCI-H3122 = tested on: NCI-H3122
How it was run: as §1

CAL-12T = tested on: CAL-12T
How it was run: as §1

NCI-H1755 = tested on: NCI-H1755
How it was run: as §1

LXF-289 = tested on: LXF-289
How it was run: as §1

NCI-H441 = tested on: NCI-H441
How it was run: as §1

NCI-H2126 = tested on: NCI-H2126
How it was run: as §1

NCI-H1666 = tested on: NCI-H1666
How it was run: as §1

COR-L 105 = tested on: COR-L 105
How it was run: as §1

NCI-H358 = tested on: NCI-H358
How it was run: as §1

EMC-BAC-2 = tested on: EMC-BAC-2
How it was run: as §1

NCI-H2023 = tested on: NCI-H2023
How it was run: as §1

ChaGo-K-1 = tested on: ChaGo-K-1
How it was run: as §1

NCI-H2085 = tested on: NCI-H2085
How it was run: as §1

EPLC-272H = tested on: EPLC-272H
How it was run: as §1

UMC-11 = tested on: UMC-11
How it was run: as §1

NCI-H322M = tested on: NCI-H322M
How it was run: as §1

NCI-H1915 = tested on: NCI-H1915
How it was run: as §1

HOP-62 = tested on: HOP-62
How it was run: as §1

HCC-15 = tested on: HCC-15
How it was run: as §1

SMILES: Nc1ccn([C@@H]2O[C@H](CO)[C@@H](O)[C@@H]2O)c(=O)n1 [Cytarabine] + CCNC(=O)c1noc(-c2cc(C(C)C)c(O)cc2O)c1-c1ccc(CN2CCOCC2)cc1 [Luminespib] (partner 0.01 µM)
- relative viability (ABC-1; first compound 0.005 µM): 0.732
- relative viability (ABC-1; first compound 0.01581 µM): 0.624
- relative viability (ABC-1; first compound 0.05 µM): 0.712
- relative viability (ABC-1; first compound 0.1581 µM): 0.381
- relative viability (ABC-1; first compound 0.5 µM): 0.281
- relative viability (NCI-H1975; first compound 0.005 µM): 0.536
- relative viability (NCI-H1975; first compound 0.01581 µM): 0.316
- relative viability (NCI-H1975; first compound 0.05 µM): 0.193
- relative viability (NCI-H1975; first compound 0.1581 µM): 0.209
- relative viability (NCI-H1975; first compound 0.5 µM): 0.171
- relative viability (NCI-H3122; first compound 0.005 µM): 0.0849
- relative viability (NCI-H3122; first compound 0.01581 µM): 0.0661
- relative viability (NCI-H3122; first compound 0.05 µM): 0.0881
- relative viability (NCI-H3122; first compound 0.1581 µM): 0.0776
- relative viability (NCI-H3122; first compound 0.5 µM): 0.0754
- relative viability (CAL-12T; first compound 0.005 µM): 0.227
- relative viability (CAL-12T; first compound 0.01581 µM): 0.288
- relative viability (CAL-12T; first compound 0.05 µM): 0.64
- relative viability (CAL-12T; first compound 0.1581 µM): 0.217
- relative viability (CAL-12T; first compound 0.5 µM): 0.178
- relative viability (NCI-H1755; first compound 0.005 µM): 0.879
- relative viability (NCI-H1755; first compound 0.01581 µM): 0.222
- relative viability (NCI-H1755; first compound 0.05 µM): 0.328
- relative viability (NCI-H1755; first compound 0.1581 µM): 0.274
- relative viability (NCI-H1755; first compound 0.5 µM): 0.378
- relative viability (LXF-289; first compound 0.005 µM): 0.673
- relative viability (LXF-289; first compound 0.01581 µM): 0.665
- relative viability (LXF-289; first compound 0.05 µM): 0.43
- relative viability (LXF-289; first compound 0.1581 µM): 0.266
- relative viability (LXF-289; first compound 0.5 µM): 0.149
- relative viability (NCI-H441; first compound 0.005 µM): 0.283
- relative viability (NCI-H441; first compound 0.01581 µM): 0.252
- relative viability (NCI-H441; first compound 0.05 µM): 0.354
- relative viability (NCI-H441; first compound 0.1581 µM): 0.266
- relative viability (NCI-H441; first compound 0.5 µM): 0.271
- relative viability (NCI-H2126; first compound 0.005 µM): 0.789
- relative viability (NCI-H2126; first compound 0.01581 µM): 0.86
- relative viability (NCI-H2126; first compound 0.05 µM): 0.671
- relative viability (NCI-H2126; first compound 0.1581 µM): 0.53
- relative viability (NCI-H2126; first compound 0.5 µM): 0.427
- relative viability (NCI-H1666; first compound 0.005 µM): 1.01
- relative viability (NCI-H1666; first compound 0.01581 µM): 0.94
- relative viability (NCI-H1666; first compound 0.05 µM): 0.675
- relative viability (NCI-H1666; first compound 0.1581 µM): 0.539
- relative viability (NCI-H1666; first compound 0.5 µM): 0.579
- relative viability (COR-L 105; first compound 0.005 µM): 0.783
- relative viability (COR-L 105; first compound 0.01581 µM): 0.667
- relative viability (COR-L 105; first compound 0.05 µM): 0.739
- relative viability (COR-L 105; first compound 0.1581 µM): 0.405
- relative viability (COR-L 105; first compound 0.5 µM): 0.278
- relative viability (NCI-H358; first compound 0.005 µM): 0.338
- relative viability (NCI-H358; first compound 0.01581 µM): 0.582
- relative viability (NCI-H358; first compound 0.05 µM): 0.34
- relative viability (NCI-H358; first compound 0.1581 µM): 0.144
- relative viability (NCI-H358; first compound 0.5 µM): 0.181
- relative viability (EMC-BAC-2; first compound 0.005 µM): 0.885
- relative viability (EMC-BAC-2; first compound 0.01581 µM): 0.742
- relative viability (EMC-BAC-2; first compound 0.05 µM): 0.346
- relative viability (EMC-BAC-2; first compound 0.1581 µM): 0.259
- relative viability (EMC-BAC-2; first compound 0.5 µM): 0.244
- relative viability (NCI-H2023; first compound 0.005 µM): 0.604
- relative viability (NCI-H2023; first compound 0.01581 µM): 0.235
- relative viability (NCI-H2023; first compound 0.05 µM): 0.19
- relative viability (NCI-H2023; first compound 0.1581 µM): 0.0889
- relative viability (NCI-H2023; first compound 0.5 µM): 0.0897
- relative viability (ChaGo-K-1; first compound 0.005 µM): 0.649
- relative viability (ChaGo-K-1; first compound 0.01581 µM): 0.43
- relative viability (ChaGo-K-1; first compound 0.05 µM): 0.263
- relative viability (ChaGo-K-1; first compound 0.1581 µM): 0.206
- relative viability (ChaGo-K-1; first compound 0.5 µM): 0.188
- relative viability (NCI-H2085; first compound 0.005 µM): 0.426
- relative viability (NCI-H2085; first compound 0.01581 µM): 0.459
- relative viability (NCI-H2085; first compound 0.05 µM): 0.455
- relative viability (NCI-H2085; first compound 0.1581 µM): 0.415
- relative viability (NCI-H2085; first compound 0.5 µM): 0.339
- relative viability (EPLC-272H; first compound 0.005 µM): 0.433
- relative viability (EPLC-272H; first compound 0.01581 µM): 0.241
- relative viability (EPLC-272H; first compound 0.05 µM): 0.194
- relative viability (EPLC-272H; first compound 0.1581 µM): 0.228
- relative viability (EPLC-272H; first compound 0.5 µM): 0.243
- relative viability (UMC-11; first compound 0.005 µM): 0.792
- relative viability (UMC-11; first compound 0.01581 µM): 0.591
- relative viability (UMC-11; first compound 0.05 µM): 0.495
- relative viability (UMC-11; first compound 0.1581 µM): 0.357
- relative viability (UMC-11; first compound 0.5 µM): 0.225
- relative viability (NCI-H322M; first compound 0.005 µM): 0.812
- relative viability (NCI-H322M; first compound 0.01581 µM): 0.685
- relative viability (NCI-H322M; first compound 0.05 µM): 0.514
- relative viability (NCI-H322M; first compound 0.1581 µM): 0.387
- relative viability (NCI-H322M; first compound 0.5 µM): 0.351
- relative viability (NCI-H1915; first compound 0.005 µM): 0.622
- relative viability (NCI-H1915; first compound 0.01581 µM): 0.773
- relative viability (NCI-H1915; first compound 0.05 µM): 0.871
- relative viability (NCI-H1915; first compound 0.1581 µM): 0.486
- relative viability (NCI-H1915; first compound 0.5 µM): 0.435
- relative viability (HOP-62; first compound 0.005 µM): 0.679
- relative viability (HOP-62; first compound 0.01581 µM): 0.49
- relative viability (HOP-62; first compound 0.05 µM): 0.285
- relative viability (HOP-62; first compound 0.1581 µM): 0.135
- relative viability (HOP-62; first compound 0.5 µM): 0.135
- relative viability (HCC-15; first compound 0.005 µM): 0.328
- relative viability (HCC-15; first compound 0.01581 µM): 0.416
- relative viability (HCC-15; first compound 0.05 µM): 0.354
- relative viability (HCC-15; first compound 0.1581 µM): 0.428
- relative viability (HCC-15; first compound 0.5 µM): 0.267
